Converted amounts (≈) assume the structure as drawn.

The nature of this data set: equilibrium solubility experiments in buffer media at different pH conditions. In kind it is physicochemical. To be noted: for solubility at 1 h / solubility at 22 h: buffer media, thermodynamic from solid. From the text:
Additionally, the present invention conducted equilibrium solubility experiments of the monohydrate crystalline API, amorphous API, and hot-melt extrudate dispersion intermediate in buffer media at different pH conditions. Table 3. Summary of equilibrium solubility (µg/ml) of monohydrate crystalline API, amorphous API, and hot-melt extrudate dispersion intermediate

[1] abbreviates: pH 1.2, simulated gastric fluid, pH 1.2 buffer.
The mark [2] stands for this setting: pH 2, simulated gastric fluid, pH 2.0 buffer.
The mark [3] stands for this setting: pH 4, aqueous buffer, pH 4.0 buffer.
[4] abbreviates: pH 4.5, aqueous buffer, pH 4.5 buffer.
Where [5] appears, read: pH 5, aqueous buffer, pH 5.0 buffer.
[6] abbreviates: pH 6, aqueous buffer, pH 6.0 buffer.
The mark [7] stands for this setting: pH 6.8, aqueous buffer, pH 6.8 buffer.
Where [8] appears, read: pH 7.5, aqueous buffer, pH 7.5 buffer.

`Cc1nnc(-c2cc(C(=O)N3CCC(c4ccc(C#N)cc4)CC3)c(C)cc2C2CCC2)[nH]1` [4-[1-[4-cyclobutyl-2-methyl-5-(5-methyl-1H-1,2,4-triazol-3-yl)benzoyl]piperidin-4-yl]benzonitrile] had a solubility at 1 h under setting [1] of 30.3 µg/mL (≈ 68.9 µM); a solubility at 1 h under setting [2] of 3.57 µg/mL (≈ 8.12 µM); a solubility at 1 h (pH 3, aqueous buffer, pH 3.0 buffer) of 1.07 µg/mL (≈ 2.43 µM); a solubility at 1 h under setting [3] of 0.68 µg/mL (≈ 1.55 µM); a solubility at 1 h under setting [4] of 0.6 µg/mL (≈ 1.36 µM); a solubility at 1 h under setting [5] of 0.47 µg/mL (≈ 1.07 µM). In addition, the solubility at 1 h is, setting by setting: under setting [6], 0.5 µg/mL (≈ 1.14 µM); under setting [7], 0.44 µg/mL (≈ 1 µM); under setting [8], 0.42 µg/mL (≈ 0.955 µM). Besides, the solubility at 22 h was 27.2 µg/mL (≈ 61.8 µM) under setting [1]; 3.22 µg/mL (≈ 7.33 µM) under setting [2]; 0.6 µg/mL (≈ 1.36 µM) under setting [3]; 0.59 µg/mL (≈ 1.34 µM) under setting [4]; 0.51 µg/mL (≈ 1.16 µM) under setting [5]; 0.45 µg/mL (≈ 1.02 µM) under setting [6]. The solubility at 22 h runs as follows: under setting [7], 0.42 µg/mL (≈ 0.955 µM); under setting [8], 0.43 µg/mL (≈ 0.978 µM).

As to `Cc1nnc(-c2cc(C(=O)N3CCC(c4ccc(C#N)cc4)CC3)c(C)cc2C2CCC2)[nH]1` [Compound of formula (I) (amorphous API), 4-[1-[4-cyclobutyl-2-methyl-5-(5-methyl-1H-1,2,4-triazol-3-yl)benzoyl]piperidin-4-yl]benzonitrile], the “1-h solubility” value is, setting by setting: (pH 1.2 buffer) 50.93 µg/mL; (pH 2.0 buffer) 4.52 µg/mL; (pH 3.0 buffer) 2.14 µg/mL; (pH 4.0 buffer) 0.76 µg/mL; (pH 4.5 buffer) 0.65 µg/mL; (pH 5.0 buffer) 0.51 µg/mL. The “1-h solubility” value was found to be 0.46 µg/mL (pH 6.0 buffer), 0.46 µg/mL (pH 6.8 buffer) and 0.54 µg/mL (pH 7.5 buffer). Besides, the “22-h solubility” value amounted to 48.62 µg/mL (pH 1.2 buffer); 4.45 µg/mL (pH 2.0 buffer); 2.14 µg/mL (pH 3.0 buffer); 0.74 µg/mL (pH 4.0 buffer); 0.57 µg/mL (pH 4.5 buffer); 0.42 µg/mL (pH 5.0 buffer). Also, the “22-h solubility” value is 0.44 µg/mL (pH 6.0 buffer), 0.45 µg/mL (pH 6.8 buffer) and 0.48 µg/mL (pH 7.5 buffer).

For `Cc1nnc(-c2cc(C(=O)N3CCC(c4ccc(C#N)cc4)CC3)c(C)cc2C2CCC2)[nH]1` [Compound of formula (I) (monohydrate crystalline form)] [4-[1-[4-cyclobutyl-2-methyl-5-(5-methyl-1H-1,2,4-triazol-3-yl)benzoyl]piperidin-4-yl]benzonitrile], the “22-h solubility” value (pH 3.0 buffer) was found to be 0.97 µg/mL.

What is called solubility is the concentration that dissolves in the medium under given conditions. The low end stands for little dissolved substance, the high end for much dissolved substance.
